Experimental data taken from PubChem BioAssay AID2387 (Broad Institute, 2010).
Activity calls are given as the source filed them.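 The calls were made as follows: active = fitted EC50 no more than tenfold above the highest tested concentration; inconclusive = flat fit with 30 to 70% signal loss, or poor fit; inactive = the rest.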

Test system: Candida albicans CaCi-2 growth (no fluconazole), Alamar Blue
Assay: C. albicans growth inhibition without fluconazole, dose response, counter-screen for fluconazole resistance reversal project, CaCi-2 strain, Alamar Blue fluorescence (AID 2387)
Settings: C. albicans CaCi-2 (fluconazole-resistant clinical isolate) growth without fluconazole, 48 h

| Structure (SMILES) | EC50 |
| --- | --- |
| CCOc1ccc(NC(=S)NNC(=O)c2ccc(Br)cc2)cc1 | > 16 µM (inactive) |
| C[C@]12CCC3[C@@H](CC[C@H]4C[C@@H](O)CC[C@]34C)C1CCC2=O (some centres not stated) | > 15 µM (inactive) |
| CC(C)(C)c1ccc(Cc2n[nH]c(=S)[nH]c2=O)cc1 | > 16 µM (inactive) |
| O=C(NNC1=C(C(=O)C(F)(F)F)CCC1)c1ccc(Br)cc1 | > 15 µM (inactive) |
| Cc1c(O)c2c3c(cccc3c1O)C(=O)N(c1ccccc1)C2=O | > 15 µM (inactive) |
| O=C(NCc1ccc(F)cc1)C(c1ccccc1)N(CC1CCCO1)C(=O)Cn1nnc2ccccc21 (configuration not stated) | > 15 µM (inactive) |
| C[n+]1c2n(c3ccccc31)N=C(c1ccc(-c3ccccc3)cc1)CS2 | > 16 µM (inactive) |
| Oc1ccc(N=Nc2ccc3c(c2)OCCO3)c2ncccc12 | 3.31 µM |
| O=C(Nc1nnc(-c2ccco2)o1)c1ccc(Cl)cc1 | > 15 µM (inactive) |
| Cc1ccc(S(=O)(=O)N(C)c2ccc(OCC(=O)Nc3nnc(C4CC4)s3)cc2)cc1 | > 15 µM (inactive) |
| CCn1c(Sc2nc(C)nc3scc(-c4cccs4)c23)n[nH]c1=O | > 16 µM (inactive) |
| CCC(C)c1ccc(O)c(NC(=S)NC(=O)c2cccnc2)c1 (configuration not stated) | > 15 µM (inactive) |
| CC(=O)O/N=C/c1c(N2CCOCC2)n(C)c2ccccc12 | > 16 µM (inactive) |
| CN1CCN(C(c2ccc(C(F)(F)F)cc2)c2cc(Cl)c3cccnc3c2O)CC1 (configuration not stated) | 2.45 µM |
| Cc1ccc(Nc2nc(N)c([N+](=O)[O-])c(N3CCC(C)CC3)n2)cc1C | > 15 µM (inactive) |
| CN1/C(=C/C(=O)c2cccs2)Sc2ccccc21 | > 15 µM (inactive) |

| Structure (SMILES) | EC50 |
| --- | --- |
| O=C(N/N=C/c1ccccc1O)c1cccc(C(F)(F)F)c1 | > 15 µM (inactive) |
| COc1cccc(C2CC(c3ccc(NS(C)(=O)=O)cc3)=NN2C(=O)c2ccccc2)c1OC (configuration not stated) | > 15 µM (inactive) |
| Cc1ccc2ccc3ccc(C)nc3c2n1 | > 15 µM (inactive) |
| O=C(Nc1nnc(-c2ccc3c(c2)CCCC3)o1)c1ccc(Cl)cc1Cl | 14.5 µM |
| O=C(CCS(=O)(=O)c1ccc(Cl)cc1)Nc1nc(-c2ccncc2)cs1 | > 15 µM (inactive) |
| CN(C)S(=O)(=O)Oc1cccc(C(=O)Nc2ccc(Cl)c(Cl)c2)c1 | > 15 µM (inactive) |
| CCn1c(O)c(N=NC(=O)c2cccs2)c2ccccc21 | > 15 µM (inactive) |
| CCCC(=O)NC(c1cccs1)c1cc(Cl)c2cccnc2c1O (configuration not stated) | 12 µM |
| NC(=O)c1c(NC(=O)c2ccco2)sc2c1CCC2 | > 15 µM (inactive) |
| CC(=O)NC1CCCN(O)C(=O)/C=C(\C)CCOC(=O)C(NC(C)=O)CCCN(O)C(=O)/C=C(\C)CCOC(=O)C(NC(C)=O)CCCN(O)C(=O)/C=C(\C)CCOC1=O (configuration not stated) | 2.05 µM |
| CCOc1ccc(-c2ccc(NS(=O)(=O)c3ccc([N+](=O)[O-])cc3)cc2)nn1 | > 15 µM (inactive) |
| C/C(=N\NC(=O)c1cc2ccccc2cc1O)c1ccccn1 | 9.98 µM |
| C=CCc1c(C)c(C#N)c2nc3ccccc3n2c1NCCN(C)C | > 15 µM (inactive) |
| Cc1cc(N/N=C/c2c(O)ccc3ccccc23)nc(-c2ccccc2O)n1 | > 16 µM (inactive) |
| Cc1ccc(-c2nc3c(Cl)cc(Cl)cc3c(=O)n2O)cc1 | 11.5 µM |
| CCOC(=O)c1c(-c2ccccc2Cl)cn2ccccc12 | > 16 µM (inactive) |
